For orientation: IC50 means the concentration needed to halve the response being measured.

The source of these data is article PMC9324262, “Selective CDK9 Inhibition by Natural Compound Toyocamycin in Cancer Cells” (Cancers, 2022).

The subject of data set [1] is Rb phosphorylation level (T826). Nature of the data set: Western blot, Rb and phospho-Rb T826. The data set is classed as cell-based, human. The following applies: HCT116, 50–500 nM, 6 h. For orientation: In western blotting, separated proteins are transferred to a membrane and probed.
On the set-up of data set [2]: method as in PMID 5646857. The following applies: cited from earlier work.
In a further data set the test system is RNA-Pol II Ser2-P. The data set is described as follows: Western blot, RNA Pol II and phospho-Pol II Ser2. The conditions noted are these: 6 h. The data set is classed as cell-based, human. On the procedure: YB5 cells were harvested in 50 mM Tris-HCl, 1% NP-40, 1 mM EDTA, 1 mM EGTA, 0.25% sodium deoxycholate, 150 mM NaCl, 50 mM sodium fluoride, and 1X Complete protease cocktail (Roche, Basel, Switzerland) with 1 mM PMSF. The total protein concentration was measured in all samples by standard BCA protocol (Pierce-23225, Thermo Scientific, Waltham, MA, USA) to ensure that an equal amount of protein was added to each sample. Protein extracts were run on 12% SDS–PAGE precast gels (Bio-Rad, Hercules, CA, USA, 345-0118). Proteins were transferred to polyvinylidene difluoride (PVDF) membranes in 10 mmol/L CAPS (pH-11) containing 10% methanol and detected by using specific primary antibodies, horseradish peroxidase–conjugated secondary antibodies (GE Healthcare, Chicago, IL, USA), and an enhanced chemiluminescence reagent (Pierce). PVDF membranes were incubated with specific primary antibodies (actin—A5441, Sigma, St. Louis, MO, USA; HA-tagged—H9608, Sigma; FLAG-tagged—F3165, Sigma). FLAG- and HA-tagged CDK9 plasmids were a generous gift from Dr Bassel E. Sawaya (Temple University). For CDK9 target modulation, HCT116 colon cancer cells were treated with toyocamycin or known CDK9 inhibitor BAY1251152 (Selleckchem, Houston, TX, USA). Whole cell extracts were obtained by lysing cells with 25 mM Tris (pH 7.3) and 1% sodium dodecyl sulfate (SDS). After sonication, total protein concentrations were determined using Bradford protein assay. The following primary antibodies were used to investigate the effect of CDK9 inhibition: Pol II against the N-term region (sc-55492, Santa Cruz, Dallas, TX, USA), Pol II against the C-term region (39097, Active motif, Carlsbad, CA, USA), Pol II phospho CTD ser2 (14-9802-82, Invitrogen, Waltham, MA, USA), Rb (ab181616, Abcam, Cambridge, UK), Rb phospho T826 (ab133446, Abcam, Cambridge, UK), CDK9 (ab39098, Abcam, Cambridge, UK), and actin (ab1801, Abcam, Cambridge, UK). Images were acquired with an Image Quant LAS4000 device from GE Healthcare Life Sciences. Band intensity quantifications were calculated using ImageJ software, edition 1.53 [27].

Another data set has as its target T1, CDK2/Cyclin 2A (Homo sapiens, UniProt P24941).
T1 construct: purchased BPS Bioscience
Nature of the data set: biochemical. The conditions noted are these: 10 µM ATP, 30 °C, 60 min. Here is the method: The in vitro enzymatic assays were conducted at BPS Bioscience. CDK9/Cyclin T1, CDK2/Cyclin 2A, CDK4/Cyclin D3, and CDK6/Cyclin D3 enzymatic activities were tested with an ATP Kinase-Glo Plus Luminescence kinase assay kit (Promega, V6073, Madison, WI, USA), while the CDK7/Cyclin H/MAT1 activities were tested using ADP-Glo Kinase (Promega, V6930). These assays measure kinase activity by quantifying the amount of ATP or ADP remaining in solution following a kinase reaction. The luminescent signal from the assay is correlated to the amount of ATP or ADP present and is inversely correlated to the kinase activity. The compounds were diluted to 10% DMSO and were added to the reaction so that the final concentration of DMSO was 1% in all reactions. All enzymatic reactions were conducted at 30 °C for 60 min. […] After the enzymatic reaction, the luminescence signal was measured using a BioTek Synergy 2 microplate reader (Agilent, Santa Clara, CA, USA). Kinase activity assays were performed in duplicate at each concentration and the percent of kinase activity was calculated as a ratio of luminescence intensities in the absence or in presence of the compounds. […] IC50 values were determined by the concentration causing a half-maximal percent activity (BPS Bioscience, San Diego, CA, USA).

Consider `N#Cc1cn([C@@H]2O[C@H](CO)[C@@H](O)[C@H]2O)c2ncnc(N)c12` [toyocamycin, 7-Deaza-7-cyanoadenosine], for which the “Rb and its phosphorylated form (T826)” value in data set [1] is given as “did not change”. Moreover, the systemic toxic effects result in data set [2] (10–200 µg/kg for 5 days, intravenous infusion over 1–2 h, twenty-three cancer patients) is “No systemic toxic effects were observed”. The local toxicity entry in data set [2] (patients receiving the highest doses, intravenous infusion) is given as “local toxicity at the site of injection (severe phlebitis)”. Also, the “RNA-Pol II ser 2 phosphorylation” value in the data set with RNA-Pol II Ser2-P (HCT116, 350–500 nM) is on record as “significantly reduced”. Moreover, the “RNA Pol II band intensity, Pol II C-terminal antibody” value in the data set with RNA-Pol II Ser2-P (HCT116, above 350 nM) is “reduced the RNA Pol II band intensity”. Further, the IC50 at CDK2/Cyclin 2A came to 0.67 µM.
